# Measured values: patent US20080108611A1, “SUBSTITUTED THIENOPYRIMIDINE KINASE INHIBITORS” (priority 2006, published 2008)
# Assays:
# Type in all cases: biochemical
# HER-2 = biological target: T1, HER-2 (Homo sapiens, UniProt P04626); experiment: HER-2 Kinase Assay; details: GST-HER2, 1 μM ATP
# T1 construct: the nucleotides encoding amino acids 679 to 1255 of HER-2; HIS6-Thrombin (His6 tag and thrombin site) (N); purchased Proqinase (Freiburg, Germany)
# Experimental: HER-2 kinase was purified at Proqinase (Freiburg, Germany) from a construct that consisted of a fusion of GST (Glutathione-S-Transferase), HIS6-Thrombin and the nucleotides encoding amino acids 679 to 1255 of HER-2.
# A mixture of a 10× kinase reaction buffer (600 mM Hepes at pH 7.5, 30 mM Magnesium Chloride, 0.03 mM Sodium Vanadate and 500 μg/mL PEG 20,000), DTT (1.2 mM final from a 10 mM stock), ATP (1 μM from a 10 mM stock), biotinylated polyGluTyr (1.5 ng/μL final from stock of 1 μg/μL prepared by Upstate Biotechnologies, Lake Placid, N.Y.), Manganese Chloride (3 mM final from a 1 M stock), γ-^33P-ATP (10 μCi/μL stock) and water (70 μL/well) was added to each well of a Streptavidin Flashplate (Cat. # SMP103, NEN, Boston, Mass.).
# Test compound stock (1 μL) was added to the appropriate wells. Diluted GSTHER2 kinase (6.7 ng/μL diluted into 50 mM Tris-HCl at pH 8.0 and 0.1% bovine serum albumin) (30 μL) was added (total volume of 200 ng/well) to initiate the reactions.
# The reaction plates were incubated at 30° C. for 1 hr. The reaction was terminated by aspirating the reaction mixture from the plate wells and washing the wells three times with a 1×PBS stop buffer (300 μL) and 100 mM EDTA. After the final wash, the same stop buffer (200 μL) was again added to the wells. The plates were then sealed and read on the TopCount scintillation counter. The IC50 was derived according to the procedure described in Example 1.
# Aurora-A = biological target: T2, Aurora-A (Mus musculus, UniProt P97477); experiment: Aurora-A Screening Assay; details: murine Aurora-A full length, 10 μM ATP
# T2 construct: followed by the full length protein encoding the murine Aurora-A; polyhistidine (N); made in house; host or cells: Sf9 insect cells
# T2 sequence (P97477 1-395): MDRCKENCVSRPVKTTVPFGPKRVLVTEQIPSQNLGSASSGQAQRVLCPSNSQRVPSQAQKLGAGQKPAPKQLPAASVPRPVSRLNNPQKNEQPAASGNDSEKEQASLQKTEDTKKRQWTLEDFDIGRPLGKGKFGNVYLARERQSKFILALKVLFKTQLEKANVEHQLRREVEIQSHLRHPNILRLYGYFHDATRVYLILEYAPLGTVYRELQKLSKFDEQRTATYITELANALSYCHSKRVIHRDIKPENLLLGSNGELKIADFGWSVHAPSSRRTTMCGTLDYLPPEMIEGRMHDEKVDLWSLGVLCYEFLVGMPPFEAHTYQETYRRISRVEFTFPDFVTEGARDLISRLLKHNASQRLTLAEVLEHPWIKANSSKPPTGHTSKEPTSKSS
# Experimental: A kinase reaction mixture was prepared containing 50 mM Tris-HCl at pH 8, 10 mM MgCl2, 0.1 mM Na3PO4, 1 mM DTT, 10 μM ATP, 0.025 μM biotinylated histone-H1 peptide substrate and 0.2 μCuries per well ^33P-γ-ATP (2000-3000 Ci/mmol). 70 μL of the kinase reaction mixture was dispensed into the well of a Streptavidin FlashPlate.
# Test compound stock in 100% DMSO (1 μL) was added to the wells resulting in a final concentration of 1% DMSO in the reaction with a 100 μL final reaction volume. Each enzyme was diluted in 50 mM Tris-HCl pH=8.0, 0.1% BSA and 30 μL was added to each well to initiate the reaction. The reaction was incubated for one hour at 30° C. At the end of the 1 hr incubation, the reaction was terminated by aspirating the mixture from the plate and washing the wells twice with PBS containing 100 mM EDTA. The biotinylated peptide substrate became immobilized on the Flashplate™ and the incorporation of ^33P-γ-ATP was measured by reading the plate on a scintillation counter. Inhibition of the enzymatic activity was measured by observing a reduced amount of ^33P-γ-ATP incorporated into the immobilized peptide.
# Aurora-A is a fusion protein containing a polyhistidine tag at the N terminus followed by the full length protein encoding the murine Aurora-A (Accession number GB BC014711) expressed and purified from sf9 insect cells. The assay used 400 ng of the N-terminal biotinylated peptide biotin-GRTGRRNSI-amide (Aurora-A) per well.
# The IC50 was derived according to the procedure described in Example 1.
# Lyn kinase = biological target: T3, Lyn kinase (Homo sapiens, UniProt P07948); experiment: Lyn Kinase Assay; details: test concentration of 2 μM; read-out: Lyn Inhibition (%) Inh
# T3 construct: purchased Upstate Biotechnology, Lake Placid, N.Y
# T3 sequence (P07948 whole entry): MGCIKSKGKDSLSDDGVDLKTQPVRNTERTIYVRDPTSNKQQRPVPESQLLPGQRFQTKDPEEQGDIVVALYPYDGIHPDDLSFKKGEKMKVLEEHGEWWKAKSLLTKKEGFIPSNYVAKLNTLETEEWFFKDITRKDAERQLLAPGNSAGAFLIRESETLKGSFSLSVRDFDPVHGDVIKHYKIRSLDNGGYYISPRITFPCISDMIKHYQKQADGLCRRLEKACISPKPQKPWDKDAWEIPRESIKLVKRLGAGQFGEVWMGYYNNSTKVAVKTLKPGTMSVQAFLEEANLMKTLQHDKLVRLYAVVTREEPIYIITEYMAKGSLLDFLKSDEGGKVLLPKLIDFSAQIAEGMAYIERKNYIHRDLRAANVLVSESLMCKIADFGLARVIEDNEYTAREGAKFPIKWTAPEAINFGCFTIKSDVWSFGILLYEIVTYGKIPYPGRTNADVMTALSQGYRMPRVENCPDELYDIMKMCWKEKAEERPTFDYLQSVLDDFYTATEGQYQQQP
# Experimental: A mixture of a 10× kinase buffer (500 mM MOPS at pH 7.5, 1 mM EGTA, 1 mM Sodium Vanadate, 1% β-mercaptoethanol and 100 mM Magnesium Acetate), ATP (5 μM final from a 10 mM stock), polyGluTyr (0.1 mg/mL final from a 1 mg/mL stock), γ-^33P ATP (10 μCi/μL stock) and water (20 μL/well) was added to each well of a Streptavidin Flashplate.
# Test compound in 100% DMSO (0.5 μL) was added to the appropriate wells. Diluted Lyn kinase (human) (Upstate Biotechnology, Lake Placid, N.Y.) (diluted in a buffer consisting of 50 mM Tris at pH 7.5, 0.1 mM EGTA, Sodium Vanadate (0.1 mM), 13-mercaptoethanol (0.1%) and 1 mg/mL bovine serum albumin) (2.5 μL) was added to the wells to initiate the reactions.
# The reaction plates were incubated at 30° C. for 40 min. The reaction was terminated by the addition of a 3% phosphoric acid solution (5 μL). The reaction product (10 μL) was spotted onto a P30 filtermat and washed for 5 minutes in phosphoric acid (75 mM). The wash sequence was repeated two more times, followed with one final wash in methanol. The plates were then dried, sealed and read on the TopCount scintillation counter after adding 30 μL scintillation fluid. Percent inhibition was derived according to the procedure described in Example 1. The percent inhibition results are shown in Table 4 at a test concentration of 2 μM.
# T1 sequence (P04626 679-1255): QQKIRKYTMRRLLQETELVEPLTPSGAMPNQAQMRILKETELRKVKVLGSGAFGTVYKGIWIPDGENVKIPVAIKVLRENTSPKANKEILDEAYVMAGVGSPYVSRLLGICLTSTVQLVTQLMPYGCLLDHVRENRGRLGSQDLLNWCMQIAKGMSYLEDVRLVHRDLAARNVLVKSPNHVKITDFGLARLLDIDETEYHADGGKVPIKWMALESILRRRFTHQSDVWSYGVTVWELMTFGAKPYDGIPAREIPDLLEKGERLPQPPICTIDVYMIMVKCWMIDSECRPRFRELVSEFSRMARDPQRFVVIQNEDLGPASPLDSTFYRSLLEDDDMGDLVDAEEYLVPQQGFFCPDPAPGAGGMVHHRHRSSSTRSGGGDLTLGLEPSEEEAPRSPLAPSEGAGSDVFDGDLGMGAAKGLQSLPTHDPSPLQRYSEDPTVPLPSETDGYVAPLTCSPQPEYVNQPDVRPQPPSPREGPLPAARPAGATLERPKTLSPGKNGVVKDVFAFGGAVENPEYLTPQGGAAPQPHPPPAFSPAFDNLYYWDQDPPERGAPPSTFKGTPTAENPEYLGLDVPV
Structure (SMILES),IC50 (HER-2) [µM],IC50 (Aurora-A) [µM],inhibition at 2 µM (Lyn kinase) [%]
"Cc1c(C(=O)Nc2ccc(CN3CCOCC3)cc2)sc2ncnc(Nc3ccc(Oc4ccccc4)cc3)c12 [Cpd 23, 5-methyl-4-(4-phenoxy-phenylamino)-thieno[2,3-d]pyrimidine-6-carboxylic acid (4-morpholin-4-ylmethyl-phenyl)-amide]",> 100,> 100,9
"Cc1cc2c(F)c(Oc3ncnc4sc(C(=O)NCCN5CCCC5)c(C)c34)ccc2[nH]1 [Cpd 22, 4-(4-fluoro-2-methyl-1H-indol-5-yloxy)-5-methyl-thieno[2,3-d]pyrimidine-6-carboxylic acid (2-pyrrolidin-1-yl-ethyl)-amide]",> 100,> 100,-2
Cc1c(C(=O)NCCN2CCOCC2)sc2ncnc(Nc3ccc(Oc4ccccc4)cc3)c12 [Cpd 24],> 10,> 100,23
"Cc1cc2c(F)c(Oc3ncnc4sc(C(=O)Nc5ccc(CN6CCOCC6)cc5)c(C)c34)ccc2[nH]1 [Cpd 20, 4-(4-fluoro-2-methyl-1H-indol-5-yloxy)-5-methyl-thieno[2,3-d]pyrimidine-6-carboxylic acid (4-morpholin-4-ylmethyl-phenyl)-amide]",> 100,> 100,20
"Cc1cc2c(F)c(Oc3ncnc4sc(C(=O)NCCN5CCCCC5)c(C)c34)ccc2[nH]1 [Cpd 21, 4-(4-fluoro-2-methyl-1H-indol-5-yloxy)-5-methyl-thieno[2,3-d]pyrimidine-6-carboxylic acid (2-piperidin-1-yl-ethyl)-amide]",> 100,> 100,8
"Cc1cc2c(F)c(Oc3ncnc4sc(C(=O)NCCN5CCOCC5)c(C)c34)ccc2[nH]1 [Cpd 19, 4-(4-fluoro-2-methyl-1H-indol-5-yloxy)-5-methyl-thieno[2,3-d]pyrimidine-6-carboxylic acid (2-morpholin-4-yl-ethyl)-amide]",> 100,> 100,16
"COCCNC(=O)c1sc2ncnc(Oc3ccc4[nH]c(C)cc4c3F)c2c1C [Cpd 27, 4-(4-fluoro-2-methyl-1H-indol-5-yloxy)-5-methyl-thieno[2,3-d]pyrimidine-6-carboxylic acid (2-methoxy-ethyl)-amide]",> 10,> 10,23
